Patent publication US8586307B2, “Methods for diagnosing epigenetic, transgenerational effects of environmental toxicants on mammalian germ-lines and treating associated diseases” (priority 2005, dated 2013)
Where “and” joins values, the source holds several entries; their conditions need not be identical. Equal entries are not always repeated.

Legend:
[1] = tested on: epididymal sperm; conditions: rat, in vivo
Method: In Vivo Procedures: Gestating outbred Sprague-Dawley and inbred Fisher mother rats from timed, pregnant colonies housed at the Washington State University Vivarium, were given intraperitoneal injections of vinclozolin (100 mg/kg/day) and methoxychlor (200 mg/kg/day) from embryonic day 8-15 (E8-E15, sperm positive vaginal smear date=E0) of gestation (F0 generation) as previously described. Gestating mothers administered vehicle, sesame oil or DMSO, served as controls. At least 6 lines (individual F0 injected females) were generated for controls and treated groups for these analyses. Male rats from control and treated groups were collected at P60-P180 for analyses. F1 treated males were bred to F1 treated females to generate the F2 treated generation and F2 treated males were bred to F2 treated females to generate the F3 generation and the F3 were bred in the same manner to generate the F4 generation. Rats for the control groups were bred in the same manner for all the generations. No inbreeding or sibling crosses were generated. The outcross group (VOC) were generated by breeding the F2 treated males with wild-type females (total of 6 litters) and reverse outcross group (RVOC) was generated by breeding F2 treated females with wild-type males (total of 3 litters). Control (n=4) and treated (n=4) male offspring from the F1 generation from Fisher strain rats were collected at P6 for DNA methylation analysis, see below. All procedures have been approved by the Washington State University Animal Care Committee. […]
Sperm Motility and Concentration Analysis: Animals were sacrificed and cauda epididymal sperm motility was determined using cauda epididymal sperm. […] All the motile sperm including rapid progressive, slow progressive and non-progressive were counted according to WHO category. Percent ratio of the motile sperm to the total number of sperm including immotile sperm was calculated. Epididymal sperm count was determined using the same epididymis sample according to a previously described method with some modifications.

[2] = tested on: sperm DNA; test: Bisulfite sequencing of sperm DNA; type: in vivo, rat
Method: Bisulfite Sequencing: Genomic DNA was isolated from F1 and F4 sperm samples using the DNeasy Tissue Kit (Qiagen, Valencia, Calif.) and digested with Rsa I. Genomic DNA was then treated with sodium bisulfite, following methods previously established. Briefly, 5 μg of digested DNA was denatured in NaOH, then treated with 4.0 M, pH 5.0 sodium metabisulfite for 16 hours at 55° C. Following desalting, DNA was desulfonated with NaOH, neutralized and precipitated with ammonium acetate and ethanol. DNA samples were resuspended in 30 μL, of 1 mM Tris buffer, pH 8.0. Sequence specific primers were generated to amplify the region of interest. PCR products were cloned into pGemT Easy vector (Promega Corporation) and sequenced. Approximately 35 clones from each PCR product were sequenced for analysis of methylation state of the CpG sites. Confirming altered methylation states involved comparisons of the sequence following the bisulfite treatment. The primers for the lysophospholipase PCR bisulfite analysis were 5′GGTATATATAGAGGAAGGTAGGTA GG3′ (SEQ ID NO:1) and 5′TAAAAACCTCCAAAAAACAAACAC T3′ (SEQ ID NO:2).
Bisulfite sequencing: Bisulfite sequencing was used to characterize the DNA methylation patterns and changes. Genomic DNA was isolated from control and vinclozolin F2 and F3 generation epididymal sperm using the DNeasy Tissue Kit. Genomic DNA (10 μg) was digested with RsaI then treated with bisulfite as described above for Example I. After purification, the bisulfite converted DNA was used as a template for PCR. The bisulfite primers for each candidate were designed using MethPrimer (www.urogene.org/methprimer) system (Li and Dahiya, 2002) and are listed in Table 2. The sequence specific primers were generated to amplify the CpG region of interest to characterize the methylation pattern. PCR conditions for amplification were as follows: 30 cycles followed by another 30 cycles with nested primers (30 s at 95° C., 45 s at 50° C., and 50 s at 72° C.) and then 5 min at 72° C. with modified 1× buffer [10×: 166 mM (NH4)2.SO4; 670 mM Tris pH 8.8; 67 mM MgCl2; 100 mM β-mercaptoethanol]. PCR products were cloned into pGEM-T easy vector (Promega) and sequenced using Big-Dye Terminator (Applied BioSystems). Approximately 50 different clones from each PCR product were sequenced to characterize the methylation state of the CpG sites identified. A mixture of a minimum of 3 different F2 or F3 generation control and vinclozolin animals were used to generate approximately 50 clones per candidate analyzed. Statistical differences between methylation states were determined with a Fisher's Exact Test.

[3] = tested on: pregnant females; test: Ovary and pregnancy outcomes in vinclozolin generation females; type: in vivo, rat; conditions: preliminary data
Excerpt: The abnormal phenotype has similarities to pre-eclampsia that include death, severe anemia and blood cell defects, occurring in approximately 15% of all pregnancies in vinclozolin-generation females. Other disease states, as such as prostate abnormalities, tumor development, abnormal immune system activation and premature aging, may be induced by the epigenetic transgenerational actions of the endocrine disruptors.

[4] = F2/F3 sperm DNA, one of 5 potential CpG sites
[5] = F2/F3 sperm DNA, one of 6 potential CpG sites

C=CC1(C)OC(=O)N(c2cc(Cl)cc(Cl)c2)C1=O (stereo not drawn) [vinclozolin]
sperm forward motility reduced ([1]; male): approximately 20%
sperm numbers reduced ([1]; male): approximately 20%
sperm number and motility in outcross (VOC) males [1]: decrease
treated sperm DNA samples with bisulfite altered sequence of the lysophospholipase gene ([2]; CpG island of lysophospholipase gene): approximately 25%
methylation differences, Candidate #7 (Ankrd28/Galntl2) ([2]; F2/F3 sperm DNA): did not have any detectable differences
methylation differences, Candidate #21, 32 (LOC503205/NCAM1) ([2]; F2/F3 sperm DNA): no differences in methylation
methylation differences, Candidate #23 (LOC503150/snRP1c) ([2]; F2/F3 sperm DNA): no differences in methylation
methylation differences, Candidate #25 (Mup4/MUP) ([2]; F2/F3 sperm DNA): no differences in methylation
CpG hypermethylated to, Candidate #29 (Runx1/Awa1p) ([2]; F2/F3 sperm DNA, 1 of 6 potential CpG sites): 48%
CpG hypermethylated to, Candidate #14, 15 (Lrrn6a) ([2]; F2/F3 sperm DNA, 2 of 4 potential CpG): 27%
CpG hypermethylated to, Candidate #26 (Acaca) ([2]; F2/F3 sperm DNA, 2 of 5 potential CpG sites): 50% and 28%
CpG hypermethylated to, Candidate #33 (Six3/Six2) ([2]; F2/F3 sperm DNA, 2 of 6 potential CpG sites): 31% and 57%
CpG hypermethylated to, Candidate #27, 28 (zinc finger protein 212) ([2]; F2/F3 sperm DNA, 2 of 8 potential CpG sites): 45% and 48%
CpG hypermethylated to, Candidate #5, 6, 9 (FLJ22405 protein) ([2]; F2/F3 sperm DNA, 2 of 9 potential CpG): 50% and 35%
CpG hypermethylated to, Candidate #17, 18 (nicastrin/Copa) ([2]; F2/F3 sperm DNA, 2 of 20 potential CpG sites): 55% and 30%
CpG hypermethylated to, Candidate #13 (Nfix) ([2]; F2/F3 sperm DNA, 4 of 17 potential CpG sites): 50-60%
methylation differences, Candidate #4, 19 (Cacna1e) ([2]; F2/F3 sperm DNA, 6 potential CpG): did not have any detectable differences in methylation
CpG hypermethylated to, Candidate #31 (Waspip/LOC499811) ([2]; F2/F3 sperm DNA, one of 4 potential CpG sites): 42%
CpG hypermethylated to, Candidate #8 (liprin-α1/Fadd) [2, 4]: 65%
CpG hypermethylated to, Candidate #22 (tgolgin-1) [2, 4]: 67%
CpG hypermethylated to, Candidate #12 (similar to importin 7) [2, 5]: 51%
CpG hypermethylated to, Candidate #16 (optineurin) [2, 5]: 79%
H19 methylation (known imprinted gene, control) ([2]; control vs vinclozolin F2/F3 sperm DNA): No change
candidate DNA sequences confirmed to have specific hypermethylation ([2]; of the 25 candidates, F2/F3 sperm DNA): 15
methylation change, Candidate #34 (RAB12) ([2]; partial region only): no change in methylation
pregnancies with abnormal phenotype similar to pre-eclampsia (death, severe anemia, blood cell defects) ([3]; F1, F2 and F3 generation pregnant females): approximately 15%
effect on the female ovary [3]: no major effect
